Data: patent publication US11701371B2, “ENPP1 inhibitors and their use for the treatment of cancer” (THE BOARD OF TRUSTEES OF THE LELAND STANFORD JUNIOR …, priority 2017, dated 2023)
Blank lines part the entries; values can stand above or below the molecule they belong to.

Experiments:
[1] = target: T1, purified recombinant mouse ENPP1 (Mus musculus (Mouse), UniProt P06802); experiment: ENPP1 enzyme activity assay using 32P cGAMP as a substrate; format: biochemical; conditions: 32P-cGAMP 5 μM, mouse ENPP1 20 nM, pH 7.5, 5 hours
T1 sequence (P06802 whole entry): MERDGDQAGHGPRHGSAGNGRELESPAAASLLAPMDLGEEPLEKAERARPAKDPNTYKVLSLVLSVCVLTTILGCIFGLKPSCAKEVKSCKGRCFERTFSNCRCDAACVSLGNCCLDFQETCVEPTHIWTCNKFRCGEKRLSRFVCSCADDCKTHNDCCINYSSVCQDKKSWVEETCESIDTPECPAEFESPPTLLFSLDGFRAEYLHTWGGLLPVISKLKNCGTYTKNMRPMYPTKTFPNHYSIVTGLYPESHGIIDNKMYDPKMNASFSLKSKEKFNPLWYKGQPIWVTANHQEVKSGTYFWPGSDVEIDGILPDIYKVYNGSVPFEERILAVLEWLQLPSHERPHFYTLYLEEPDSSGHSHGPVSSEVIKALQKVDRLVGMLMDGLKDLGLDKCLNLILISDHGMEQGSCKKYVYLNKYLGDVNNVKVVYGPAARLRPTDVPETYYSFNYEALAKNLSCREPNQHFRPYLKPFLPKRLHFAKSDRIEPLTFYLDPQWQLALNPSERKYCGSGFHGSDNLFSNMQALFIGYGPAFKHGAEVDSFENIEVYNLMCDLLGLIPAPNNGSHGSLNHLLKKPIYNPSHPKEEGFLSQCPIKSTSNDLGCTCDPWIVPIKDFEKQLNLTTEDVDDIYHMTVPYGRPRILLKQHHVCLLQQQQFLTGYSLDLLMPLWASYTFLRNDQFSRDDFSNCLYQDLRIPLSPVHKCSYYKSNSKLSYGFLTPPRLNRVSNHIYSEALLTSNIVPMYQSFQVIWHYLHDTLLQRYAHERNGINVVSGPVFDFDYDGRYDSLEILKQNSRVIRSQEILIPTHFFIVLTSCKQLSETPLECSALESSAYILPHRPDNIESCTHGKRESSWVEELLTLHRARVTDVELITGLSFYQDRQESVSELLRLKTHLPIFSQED

[2] = target: T1, purified recombinant mouse ENPP1; experiment: ENPP1 activity assay using TMP-pNP as a substrate; format: biochemical; conditions: TMP-pNP 2 μM, mouse ENPP1 0.5 nM, pH 7.5
Method: Selected compounds of Table 1, Table 2 and other derivatives were prepared and assessed in an ENPP1 activity assay using thymidine monophosphate paranitrophenol (TMP-pNP) as a substrate. Enzyme reactions were prepared with TMP-pNP (2 μM), 5-fold dilutions of ENPP1 inhibitor, and purified recombinant mouse ENPP1 (0.5 nM) in 100 mM Tris, 150 mM NaCl, 2 mM CaCl2, 200 μM ZnCl2, pH 7.5 at room temperature. Reaction progress was monitored by measuring absorbance at 400 nm of paranitrophenolate produced by the reaction for 20 minutes.

[3] = system: 4T1-luciferase tumor; experiment: 4T1-luciferase tumor model with IR, cGAMP and anti-CTLA-4: tumor volume and survival; format: in vivo, mouse; conditions: single agent intratumoral on day 2, 4 and 7 after 20 Gy IR

IC50 [1]: 0.5 to 5 µM
SMILES: COc1ccc2c(N3CCC(CCP(=O)(O)O)CC3)nc(C)nc2c1 [Compound 12]

IC50 [2]: 0.5 to 5 µM
SMILES: O=P(O)(O)CCC1CCN(c2ncnc3nc[nH]c23)CC1 [Compound 68]

SMILES: Nc1nc2c(ncn2[C@@H]2O[C@@H]3COP(=O)(O)O[C@H]4[C@@H](O)[C@H](n5cnc6c(N)ncnc65)O[C@@H]4COP(=O)(O)O[C@@H]2[C@@H]3O)c(=O)[nH]1 [cGAMP, cyclic guanosine monophosphate-adenosine monophosphate]
tumor shrinkage effect on top of IR treatment [3]: no effect over IR treatment
